# Results as given in patent US20210254101A1, “METHODS FOR TREATING SPINAL CORD INJURY” (THE CHILDREN'S MEDICAL CENTER CORPORATION, priority 2018, published 2021).
# Tests used:
# Format in all cases: in vivo, mouse
# [1] = tested on: propriospinal and brain-derived descending axons; test: Axon regrowth tracing: retrograde HiRet-mCherry, anterograde AAV-ChR2, 5-HT immunohistochemistry
# Procedure: To test these possibilities, it was determined whether CLP290 increased the regrowth of spared propriospinal axons, and/or their connecting axons from the brain. To analyze neuronal projections to the hindlimb locomotor control center in each condition, a retrograde tracing pseudotyped lentiviral vector (HiRet) expressing mCherry (HiRet-mCherry) (Kato et al., 2011; Wang et al., 2017; Liu et al., 2017) was injected into the lumbar enlargement (L2-L4). At 2 weeks after injury, most retrogradely labeled neurons were found in the spinal cord segments between and around the lesions, with few above the lesion and none in the brain ([…]). […] Similarly, the sprouting of serotonergic axons detected by 5-HT immunohistochemistry was also not affected by CLP290 treatment (FIG. 9D-9F). Thus, it is unlikely that CLP290 acts by promoting the regrowth of brain-derived descending axons into the relay zone, or propriospinal axons projecting to the lumbar spinal cord.
# For reticulospinal tracing experiments (procedure was described previously (Esposito et al., 2014)), AAV2/8-ChR2-YFP and AAV2/8-ChR2-mCherry were injected into the mouse right and left reticular formation in the brain stem respectively. For CST tracing experiments (procedure was described previously (Liu et al., 2010; Liu et al., 2017)), AAV2/8-ChR2-mCherry was injected to the mouse right sensorimotor cortex (all AAV titers were adjusted to 0.5-5×10^13 copies/ml for injection, produced by The Viral Core, Boston Children's Hospital). For lumbar level retrograde tracing, vectors of HiRet-mCherry (lenti-virus titers were adjusted to 1.6-2×10^12 copies/ml for injection) were constructed based on the HiRet-lenti backbone (Kinoshita et al., 2012). Injection procedure was described previously (Wang et al., 2017), in which HiRet-mCherry is injected into left or right lumbar spinal cord from segments 2-4.
# Spinal cord transverse and horizontal sections were imaged with a confocal laser-scanning microscope (Zeiss 700 or Zeiss 710). To quantify and compare fluorescence intensity of: reticular spinal tract projections (RFP^+ and GFP^+), and corticospinal tract (CST) projections (GFP^+), at different transverse spinal cord segments sections (FIGS. 10A and 10C); as well as 5HT axonal staining (FIG. 10B). All images, used for analysis under multiple conditions, were taken using the same optical parameters to avoid saturation. Densitometry measurements were taken by using FIJI software, after being sub-thresholded to the background and normalized by area.
# aTo quantify and compare the retrograde HiRet-marked cell body of spinal neurons in different treatments, all images were decomposed to individual channels and planes. They were aligned and quantified using custom-developed MATLAB codes. […]
# [2] = tested on: mice with a complete T8 spinal cord transection; test: BMS open field locomotion after complete T8 spinal cord transection; settings: complete T8 transection; same treatment as in staggered lesion; FIG. 7E
# Excerpt: CLP290's effects could result from reactivating the spared dormant descending connections in the spinal cord after SCI. However, it could also act directly on the lumbar spinal cord, independently of descending inputs. […] Therefore, different from this transient effector that acts directly on the lumbar spinal cord, the effects of CLP290 on functional improvement are dependent on spared connections.
# The procedure of T8 full transection was similar to that described elsewhere (Courtine et al., 2009). Briefly, a midline incision was made over the thoracic vertebrae, followed by a T8 laminectomy. The complete T8 transection was then performed carefully using both a scalpel and micro-scissors. The muscle layers were then sutured and the skin was secured with wound clips.
# (§1) Behavioral Experiments. Motor function was evaluated with a locomotor open field rating scale on the Basso Mouse Scale (BMS). For transient pharmacological treatments, ten to fifteen minutes (van den Brand et al., 2012) prior to behavioral tests (grounding walking, all of which were performed individually), mice received systematic administration (i.p.) of the neural modulators listed above. It is important to note that with a single intraperitoneal injection, plasma CNO levels peak at 15 min and become very low by 2 h after injection (Guettier et al., 2009). For chronic pharmacological treatments, 24 hours prior to behavioral tests, mice received systematic administration of the compounds listed above. All behavioral tests were completed within 1-3 hours. For detailed hindlimb kinematic analysis, mice from different groups were placed in the MotoRater (TSE Systems, (Zorner et al., 2010)), and all kinematic analysis was performed based on data collected by the MotoRater.
# [3] = tested on: mice with staggered lesions; test: Hindlimb kinematic analysis (MotoRater) and EMG recording of TA and GS muscles during stepping
# Excerpt: This extent of recovery is functionally significant, as stepping ability has been implicated as the limiting step for functional recovery in severe injury models (Schucht et al., 2002).
# EMG Recording and cortical stimulation. The procedure for EMG recording in free moving animals was similar to that described previously (Pearson et al., 2005). In brief, at 9 weeks after surgery, 5 mice from each group (Control, CLP290 and AAV-KCC2 treated mice) underwent implantation of customized bipolar electrodes into selected hindlimb muscles to record EMG activity. Electrodes (793200, A-M Systems) were led by 30 gauge needles and inserted into the mid-belly of the medial gastrocnemius (GS) and tibialis anterior (TA) muscles of the right hindlimb. A common ground wire was inserted subcutaneously in the neck-shoulder area. Wires were routed subcutaneously through the back to a small percutaneous connector securely cemented to the skull of the mouse. EMG signals were acquired using a differential AC amplifier (1700, A-M Systems, WA) with 10-1000 Hz filtration, sampled at 4 kHz using a digitizer (PowerLab 16/35, ADInstruments), and analyzed by LabChart 8 (ADInstruments).
# as §1
smiles,measurement,setting,value
"O=C1N=C(N2CCCCN2)S/C1=C\c1ccc(F)cc1OC(=O)N1CCCC1 [CLP290, [5-Fluoro-2-[(Z)-(2-hexahydropyridazin-1-yl-4-oxo-thiazol-5-ylidene)methyl]phenyl] pyrrolidine-1-carboxylate]",sprouting of serotonergic axons,"[1]; 5-HT immunohistochemistry, FIG. 9D-9F",not affected
same,number of retrogradely traced neurons in the spinal cord,"[1]; HiRet-mCherry injected into L2-L4, 10 weeks after injury, FIGS. 8C and 8F",did not affect these measures
same,sprouting of descending brainstem reticulospinal axons,"[1]; anterograde tracing with AAV-ChR2-mCherry and AAV-ChR2-GFP, 2 and 10 weeks after injury, FIG. 9A-9C",failed to reveal increased sprouting
same,sprouting of corticospinal axons,"[1]; anterograde tracing, 2 and 10 weeks after injury, FIG. 9G-9I",failed to reveal increased sprouting
same,"functional recovery (BMS), chronic treatment",[2],failed to promote any significant functional recovery
same,total hindlimb stride length,"[3]; 9 weeks post staggered injury, versus vehicle, FIG. 1J",significantly increased
same,TA/GS activation pattern during stepping gait,"[3]; compared with alternating TA/GS activation in intact mice, FIG. 1K",co-activation of TA and GS during the swing phase
same,oscillation of hindlimb joints,"[3]; staggered-lesioned mice during stepping, FIGS. 1H-1K",significantly increased oscillation of hindlimb joints
same,bodyweight support during stepping,"[3]; staggered-lesioned mice, 8-9 weeks after injury",could partially support their body weight
same,EMG activity of tibialis anterior (TA) and gastrocnemius soleus (GS) muscles,"[3]; staggered-lesioned mice, FIG. 1K, 2H",showed both TA and GS activity
